This is an account of results in ChEMBL document CHEMBL1137582, “Quinazoline and benzimidazole MCH-1R antagonists” (Bioorg Med Chem Lett, 2007).

Active and inactive are the calls of the source. The rule behind the calls is not given here.

The target of data set [1] is T1, Melanin-concentrating hormone receptor 1 (Homo sapiens, UniProt Q99705). Kind of data set: Displacement of 125I-[Phe13,Tyr19]-MCH from MCH-R1 expressing cell membranes. On the technique in general: Loss of bound radioactivity is the signal in a displacement assay; it reports binding, not function.
Data set [2] addresses T1, Melanin-concentrating hormone receptor 1. Kind of data set: Inhibition of 125I-[Phe13,Tyr19]-MCH binding to MCH-R1 expressing cell membranes at 1uM.
Data set [3] shares this target. In words: Inhibition of MCH-mediated calcium influx into MCH-R1 expressing cells. Format: functional.
Data set [4] addresses Cytochrome P450 3A4 (Homo sapiens, UniProt P08684). Kind of data set: Inhibition of human CYP3A4 at 1uM. Format: ADME.
Data set [5] concerns the target T2, Cytochrome P450 1A2 (Homo sapiens, UniProt P05177).
T2 sequence (P05177 whole entry): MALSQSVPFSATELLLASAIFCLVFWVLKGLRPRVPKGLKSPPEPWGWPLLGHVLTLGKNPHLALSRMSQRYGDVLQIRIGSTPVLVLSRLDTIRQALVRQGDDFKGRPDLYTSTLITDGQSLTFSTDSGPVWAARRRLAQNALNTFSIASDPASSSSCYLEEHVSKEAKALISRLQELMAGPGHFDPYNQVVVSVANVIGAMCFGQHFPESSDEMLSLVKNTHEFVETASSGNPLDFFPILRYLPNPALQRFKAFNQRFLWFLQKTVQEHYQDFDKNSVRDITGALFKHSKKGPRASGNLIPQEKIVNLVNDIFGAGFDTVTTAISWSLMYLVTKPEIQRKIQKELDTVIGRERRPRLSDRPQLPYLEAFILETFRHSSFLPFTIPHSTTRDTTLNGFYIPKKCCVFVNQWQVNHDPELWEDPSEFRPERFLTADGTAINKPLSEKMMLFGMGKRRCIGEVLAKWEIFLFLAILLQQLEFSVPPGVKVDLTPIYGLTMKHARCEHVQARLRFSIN
Kind of data set: Inhibition of human CYP1A2 at 1uM. Format: ADME.

Data set [6] concerns the target Cytochrome P450 2D6 (Homo sapiens, UniProt P10635). Kind of data set: Inhibition of human CYP2D6 at 1uM. Format: ADME.
For data set [7], the target named is T3, 5-hydroxytryptamine receptor 2C (Homo sapiens) (UniProt P28335).
T3 sequence (whole entry): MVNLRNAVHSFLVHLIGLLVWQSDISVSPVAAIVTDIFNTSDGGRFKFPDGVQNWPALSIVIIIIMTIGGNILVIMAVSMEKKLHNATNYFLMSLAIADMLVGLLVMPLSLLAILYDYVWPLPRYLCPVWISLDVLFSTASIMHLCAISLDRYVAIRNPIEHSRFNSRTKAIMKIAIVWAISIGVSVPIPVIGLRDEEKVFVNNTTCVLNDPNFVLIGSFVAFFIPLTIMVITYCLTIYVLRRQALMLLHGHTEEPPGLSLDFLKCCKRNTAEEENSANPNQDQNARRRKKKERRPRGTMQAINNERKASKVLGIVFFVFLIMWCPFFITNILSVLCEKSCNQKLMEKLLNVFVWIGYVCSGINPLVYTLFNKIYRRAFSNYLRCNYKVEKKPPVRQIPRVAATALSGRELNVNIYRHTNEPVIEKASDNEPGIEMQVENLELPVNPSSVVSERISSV
In words: Inhibition of 5HT2C at 10uM.

Data set [8] has as its target T4, D(2) dopamine receptor (Homo sapiens, UniProt P14416). Kind of data set: Inhibition of D2(L).
The target in data set [9] is 5-hydroxytryptamine receptor 2A (Homo sapiens) (UniProt P28223). Kind of data set: Inhibition of 5HT2A at 10uM.
The target of data set [10] is Cytochrome P450 2C9 (Homo sapiens, UniProt P11712). In words: Inhibition of human CYP2C9 at 1uM. Format: ADME.
In data set [11] the target is Adrenergic receptor alpha-1 (Homo sapiens) (UniProt P35348+P25100+P35368). In words: Inhibition of adrenergic alpha-1 receptor at 10uM. Format: protein assay.
In data set [12] the target is 5-hydroxytryptamine receptor 2B (Homo sapiens, UniProt P41595). In words: Inhibition of 5HT2B.
The target of data set [13] is Voltage-gated inwardly rectifying potassium channel KCNH2 (Homo sapiens, UniProt Q12809). Kind of data set: Inhibition of hERG in patch-clamp assay. Format: toxicity. In general terms: Block of hERG is tested as a sign of cardiac risk.
In data set [14] the target is T5, Melanin-concentrating hormone receptor 2 (Homo sapiens, UniProt Q969V1). In words: Inhibition of MCH-R2 at 10uM.
The target in data set [15] is Cytochrome P450 2C19 (Homo sapiens, UniProt P33261). In words: Inhibition of human CYP2C19 at 1uM. Format: ADME.
Data set [16] is described as follows: Solubility at pH7.4. Conditions: buffer, pH 7.4. Format: physicochemical.
The target in data set [17] is T6, Adrenergic receptor alpha-1 (Homo sapiens, UniProt P35348+P25100+P35368).
T6 sequence (P35348 whole entry): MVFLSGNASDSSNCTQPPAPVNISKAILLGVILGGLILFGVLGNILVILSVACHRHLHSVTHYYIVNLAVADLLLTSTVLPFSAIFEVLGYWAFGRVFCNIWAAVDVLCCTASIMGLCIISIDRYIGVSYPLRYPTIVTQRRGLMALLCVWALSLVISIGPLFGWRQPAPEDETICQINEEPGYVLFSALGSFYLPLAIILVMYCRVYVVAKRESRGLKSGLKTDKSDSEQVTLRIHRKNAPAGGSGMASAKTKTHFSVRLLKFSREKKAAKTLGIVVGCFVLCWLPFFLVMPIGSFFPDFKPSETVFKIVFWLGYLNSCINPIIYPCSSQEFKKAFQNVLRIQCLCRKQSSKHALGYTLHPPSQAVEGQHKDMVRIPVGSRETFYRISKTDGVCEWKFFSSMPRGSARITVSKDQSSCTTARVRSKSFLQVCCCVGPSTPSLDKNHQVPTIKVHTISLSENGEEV
T6 sequence (P25100 whole entry): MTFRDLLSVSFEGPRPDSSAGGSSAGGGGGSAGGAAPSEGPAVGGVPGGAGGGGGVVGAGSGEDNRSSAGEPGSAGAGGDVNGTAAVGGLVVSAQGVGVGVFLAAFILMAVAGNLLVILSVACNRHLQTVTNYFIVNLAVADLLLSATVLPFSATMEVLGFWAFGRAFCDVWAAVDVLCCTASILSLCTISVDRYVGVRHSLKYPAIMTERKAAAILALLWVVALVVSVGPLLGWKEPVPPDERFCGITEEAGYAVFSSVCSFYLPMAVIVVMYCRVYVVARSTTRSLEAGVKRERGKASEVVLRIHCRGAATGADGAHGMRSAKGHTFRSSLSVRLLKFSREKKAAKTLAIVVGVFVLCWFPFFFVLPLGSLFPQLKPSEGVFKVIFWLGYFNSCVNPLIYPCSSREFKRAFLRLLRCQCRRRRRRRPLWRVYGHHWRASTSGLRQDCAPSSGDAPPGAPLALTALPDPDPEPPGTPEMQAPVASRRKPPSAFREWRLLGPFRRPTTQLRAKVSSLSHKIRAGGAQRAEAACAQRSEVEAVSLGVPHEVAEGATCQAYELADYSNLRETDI
T6 sequence (P35368 whole entry): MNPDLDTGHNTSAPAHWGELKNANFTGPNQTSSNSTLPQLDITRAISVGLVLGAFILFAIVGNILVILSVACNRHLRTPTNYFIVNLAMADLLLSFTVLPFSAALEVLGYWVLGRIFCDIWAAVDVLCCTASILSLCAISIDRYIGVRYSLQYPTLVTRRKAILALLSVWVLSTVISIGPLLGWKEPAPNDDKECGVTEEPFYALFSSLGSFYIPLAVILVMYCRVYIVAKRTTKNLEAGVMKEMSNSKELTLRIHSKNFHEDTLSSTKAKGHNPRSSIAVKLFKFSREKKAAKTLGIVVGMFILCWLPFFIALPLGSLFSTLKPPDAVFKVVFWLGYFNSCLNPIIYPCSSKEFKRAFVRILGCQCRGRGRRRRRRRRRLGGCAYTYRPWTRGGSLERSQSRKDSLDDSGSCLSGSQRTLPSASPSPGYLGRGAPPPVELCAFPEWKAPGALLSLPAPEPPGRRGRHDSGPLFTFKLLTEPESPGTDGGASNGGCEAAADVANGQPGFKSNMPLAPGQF
Kind of data set: Inhibition of adrenergic alpha-1 receptor. Format: protein assay.

For data set [18], the target named is T5, Melanin-concentrating hormone receptor 2. Kind of data set: Inhibition of MCH-R2.
Data set [19] deals with T4, D(2) dopamine receptor. Kind of data set: Inhibition of D2(L) at 10uM.

T1 sequence (Q99705 whole entry): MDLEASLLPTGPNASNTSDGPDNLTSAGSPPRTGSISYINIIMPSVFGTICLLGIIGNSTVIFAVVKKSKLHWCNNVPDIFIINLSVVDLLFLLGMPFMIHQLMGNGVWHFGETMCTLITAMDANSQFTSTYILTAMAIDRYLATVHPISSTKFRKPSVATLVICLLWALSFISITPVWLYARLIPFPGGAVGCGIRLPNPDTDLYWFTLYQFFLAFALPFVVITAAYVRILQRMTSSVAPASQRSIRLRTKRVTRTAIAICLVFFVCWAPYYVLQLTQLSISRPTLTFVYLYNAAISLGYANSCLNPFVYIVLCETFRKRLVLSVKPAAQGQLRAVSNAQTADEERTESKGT
Chain of Cytochrome P450 2D6 (P10635 whole entry): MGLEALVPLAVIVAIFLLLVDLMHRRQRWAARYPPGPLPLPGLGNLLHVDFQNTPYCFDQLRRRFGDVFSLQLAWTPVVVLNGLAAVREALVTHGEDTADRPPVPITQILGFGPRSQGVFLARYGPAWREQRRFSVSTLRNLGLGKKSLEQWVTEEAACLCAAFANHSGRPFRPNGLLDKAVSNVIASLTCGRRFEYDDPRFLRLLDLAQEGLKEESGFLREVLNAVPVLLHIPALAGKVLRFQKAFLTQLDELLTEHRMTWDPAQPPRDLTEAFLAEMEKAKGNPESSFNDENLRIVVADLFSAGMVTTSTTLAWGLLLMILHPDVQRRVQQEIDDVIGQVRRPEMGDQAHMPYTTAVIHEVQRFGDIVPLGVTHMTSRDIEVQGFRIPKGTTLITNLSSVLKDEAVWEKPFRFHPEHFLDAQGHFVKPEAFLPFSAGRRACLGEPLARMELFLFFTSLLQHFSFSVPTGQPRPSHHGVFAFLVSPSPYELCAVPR
Chain of Cytochrome P450 3A4 (P08684 whole entry): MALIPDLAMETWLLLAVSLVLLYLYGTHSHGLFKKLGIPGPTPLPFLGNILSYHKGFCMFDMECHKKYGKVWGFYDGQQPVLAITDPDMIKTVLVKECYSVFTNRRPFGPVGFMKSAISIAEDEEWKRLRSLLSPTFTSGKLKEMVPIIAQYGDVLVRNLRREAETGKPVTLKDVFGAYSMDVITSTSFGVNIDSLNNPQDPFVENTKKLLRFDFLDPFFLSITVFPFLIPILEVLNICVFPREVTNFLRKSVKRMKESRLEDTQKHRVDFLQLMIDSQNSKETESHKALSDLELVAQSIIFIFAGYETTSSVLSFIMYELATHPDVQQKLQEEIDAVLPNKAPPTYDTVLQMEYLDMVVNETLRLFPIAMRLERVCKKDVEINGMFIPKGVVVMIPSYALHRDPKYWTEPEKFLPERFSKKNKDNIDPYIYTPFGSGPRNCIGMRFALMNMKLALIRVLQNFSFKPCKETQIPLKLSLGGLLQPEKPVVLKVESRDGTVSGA
Chain of Cytochrome P450 2C19 (P33261 whole entry): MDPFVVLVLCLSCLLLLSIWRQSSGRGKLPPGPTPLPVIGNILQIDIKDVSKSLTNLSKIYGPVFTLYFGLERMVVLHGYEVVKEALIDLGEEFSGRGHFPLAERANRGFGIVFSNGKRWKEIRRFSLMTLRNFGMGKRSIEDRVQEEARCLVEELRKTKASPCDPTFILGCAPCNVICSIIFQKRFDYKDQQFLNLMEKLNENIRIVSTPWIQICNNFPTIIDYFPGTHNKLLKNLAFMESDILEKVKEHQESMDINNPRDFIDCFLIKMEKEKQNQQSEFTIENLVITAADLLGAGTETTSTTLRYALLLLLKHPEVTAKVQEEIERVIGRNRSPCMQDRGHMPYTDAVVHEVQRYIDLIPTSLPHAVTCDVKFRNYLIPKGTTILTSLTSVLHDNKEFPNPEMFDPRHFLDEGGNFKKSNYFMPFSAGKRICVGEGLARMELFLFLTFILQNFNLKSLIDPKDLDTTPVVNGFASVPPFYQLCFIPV
T5 sequence (Q969V1 whole entry): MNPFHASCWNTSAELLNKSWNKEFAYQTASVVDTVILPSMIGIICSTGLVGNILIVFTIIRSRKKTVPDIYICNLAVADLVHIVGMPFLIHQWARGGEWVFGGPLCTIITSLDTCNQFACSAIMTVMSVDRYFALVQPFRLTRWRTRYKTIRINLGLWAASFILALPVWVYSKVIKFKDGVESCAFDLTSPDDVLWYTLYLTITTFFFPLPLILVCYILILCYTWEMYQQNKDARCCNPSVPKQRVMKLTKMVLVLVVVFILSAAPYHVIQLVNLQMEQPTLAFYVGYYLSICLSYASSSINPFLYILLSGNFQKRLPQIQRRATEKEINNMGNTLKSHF
T4 sequence (P14416 whole entry): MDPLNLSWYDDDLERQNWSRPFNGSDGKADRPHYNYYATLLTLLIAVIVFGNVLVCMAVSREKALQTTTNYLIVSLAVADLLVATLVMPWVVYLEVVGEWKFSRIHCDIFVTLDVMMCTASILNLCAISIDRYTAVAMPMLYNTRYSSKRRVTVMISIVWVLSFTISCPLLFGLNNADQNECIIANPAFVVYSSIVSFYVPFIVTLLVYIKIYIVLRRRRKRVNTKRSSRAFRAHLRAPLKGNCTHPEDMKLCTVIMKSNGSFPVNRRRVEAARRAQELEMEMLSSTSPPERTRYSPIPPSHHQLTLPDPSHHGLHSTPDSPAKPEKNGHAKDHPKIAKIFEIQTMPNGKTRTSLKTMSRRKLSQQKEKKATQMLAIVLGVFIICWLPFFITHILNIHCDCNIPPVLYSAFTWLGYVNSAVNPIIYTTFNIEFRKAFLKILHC
Chain of 5-hydroxytryptamine receptor 2B (P41595 whole entry): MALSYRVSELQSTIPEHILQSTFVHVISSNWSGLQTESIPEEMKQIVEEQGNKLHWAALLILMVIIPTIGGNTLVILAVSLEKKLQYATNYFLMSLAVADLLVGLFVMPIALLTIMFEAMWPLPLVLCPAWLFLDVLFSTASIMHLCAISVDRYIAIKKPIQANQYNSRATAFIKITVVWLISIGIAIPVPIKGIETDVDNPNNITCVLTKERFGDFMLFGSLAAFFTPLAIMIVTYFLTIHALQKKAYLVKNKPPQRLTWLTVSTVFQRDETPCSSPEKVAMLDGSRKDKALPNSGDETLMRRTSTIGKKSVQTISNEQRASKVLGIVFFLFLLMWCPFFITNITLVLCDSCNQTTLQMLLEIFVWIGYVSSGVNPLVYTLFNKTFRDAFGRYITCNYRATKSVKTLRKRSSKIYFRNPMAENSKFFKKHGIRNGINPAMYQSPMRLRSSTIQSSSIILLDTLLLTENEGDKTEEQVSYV
Chain of 5-hydroxytryptamine receptor 2A (Homo sapiens) (P28223 whole entry): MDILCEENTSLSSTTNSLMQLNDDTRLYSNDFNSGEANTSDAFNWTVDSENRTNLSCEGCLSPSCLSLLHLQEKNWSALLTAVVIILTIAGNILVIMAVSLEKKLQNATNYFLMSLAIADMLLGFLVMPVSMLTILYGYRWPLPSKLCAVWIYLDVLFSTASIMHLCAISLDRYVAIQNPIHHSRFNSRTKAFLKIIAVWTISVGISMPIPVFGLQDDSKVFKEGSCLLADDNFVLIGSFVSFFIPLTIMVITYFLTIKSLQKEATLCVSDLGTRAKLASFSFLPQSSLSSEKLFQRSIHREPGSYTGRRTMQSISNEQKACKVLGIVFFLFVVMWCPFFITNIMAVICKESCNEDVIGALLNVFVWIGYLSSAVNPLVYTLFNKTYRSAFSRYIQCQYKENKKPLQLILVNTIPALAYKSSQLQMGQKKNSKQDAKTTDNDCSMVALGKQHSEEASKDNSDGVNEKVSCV
Chain of Cytochrome P450 2C9 (P11712 whole entry): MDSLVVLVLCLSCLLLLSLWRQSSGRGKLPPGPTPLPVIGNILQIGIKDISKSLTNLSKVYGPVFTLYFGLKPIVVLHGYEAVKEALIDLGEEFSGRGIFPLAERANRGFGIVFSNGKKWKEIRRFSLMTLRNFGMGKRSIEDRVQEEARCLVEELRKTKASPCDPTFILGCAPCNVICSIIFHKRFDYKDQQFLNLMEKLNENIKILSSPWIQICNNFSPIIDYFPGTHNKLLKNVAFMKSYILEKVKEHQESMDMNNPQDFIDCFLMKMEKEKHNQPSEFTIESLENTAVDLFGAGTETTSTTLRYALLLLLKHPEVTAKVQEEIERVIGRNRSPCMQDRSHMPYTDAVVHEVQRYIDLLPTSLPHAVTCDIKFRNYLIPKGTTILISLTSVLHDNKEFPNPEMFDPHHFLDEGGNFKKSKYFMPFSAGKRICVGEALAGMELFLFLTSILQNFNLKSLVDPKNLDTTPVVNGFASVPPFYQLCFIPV

`Cc1nc(N2CCCC2)nc2ccc(NC(=O)COc3ccccc3Cl)cc12`: the half-inhibitory concentration (IC50) (commonly the midpoint of a concentration-inhibition curve) in data set [1] amounted to 1930 nM.

Regarding `O=C(COc1ccc(C(F)(F)F)cc1)Nc1ccc2nc(N3CCOCC3)cnc2c1`, the inhibition (in general, the percentage by which the read-out fell short of the control) in [2] was “inactive”.

As for `Cn1c(N2CCCC2)nc2ccc(NC(=O)COc3ccc(C(F)(F)F)cc3)cc21`, the IC50 in data set [3] was found to be 9 nM; in data set [1] it was 40 nM.

Turning to `COc1ccc(OCC(=O)Nc2ccc3nc(N4CCCC4)nc(C)c3c2)cc1`, the IC50 in data set [3] was found to be 41 nM; in data set [1], 390 nM.

Regarding `Cc1nc(N2CCCC2)nc2ccc(NC(=O)COc3ccc(C(F)(F)F)cc3)cc12`, the IC50 in [3] was 100 nM; in data set [1], 165 nM.

In the case of `Cc1nc(N(C)CCN(C)C)nc2ccc(NC(=O)COc3ccc(C(F)(F)F)cc3)cc12`, the IC50 was found to be 164 nM in data set [3] and 260 nM in data set [1].

As for `Cc1nc(N2CCCC2)nc2ccc(NC(=O)COc3ccc(Cl)cc3)cc12`, the Inhibition result in data set [4], in data set [5], in [6], in data set [10] and in [15] was “Not Active” in each case. Further, the inhibition in [7] was determined as 39%; in [9], 0%; in data set [11], 28%; in data set [14], 2%. For the same molecule, the IC50 in data set [8] is > 100000 nM; in data set [3] it was 58 nM; in [12], 1900 nM; in [13] it was 10000 nM; in data set [1] it was 250 nM.

Molecule `O=C(COc1ccc(Cl)cc1)Nc1ccc2nc(N3CCOCC3)ccc2c1` registered an IC50 in data set [1] of 961 nM.

In the case of `O=C(COc1ccc(Cl)cc1)Nc1ccc2nc(N3CCOCC3)cnc2c1`, the inhibition entry in [2] was “inactive”.

In the case of `CC(C)Nc1nc2ccc(NC(=O)COc3ccc(C(F)(F)F)cc3)cc2n1C`, the figures for the IC50 in data set [3] and in data set [1] were 101 nM and 70 nM, respectively.

Molecule `O=C(COc1ccc(C(F)(F)F)cc1)Nc1ccc2nc(N3CCOCC3)ccc2c1` yielded a half-maximal inhibitory concentration (IC50) in data set [1] of 172 nM.

`Cc1cc(N2CCCC2)nc2ccc(NC(=O)COc3ccc(C(F)(F)F)cc3)cc12`: the IC50 in data set [1] is 15 nM.

As for `CN(C)CCN(C)c1nc2ccc(NC(=O)COc3ccc(C(F)(F)F)cc3)cc2n1C`, the Inhibition entry in data set [4], in [5], in data set [6], in data set [10] and in [15] was “Not Active” in each case. In data set [16], the solubility (commonly the concentration that dissolves in the medium under given conditions) is > 1000 µg/mL. The IC50 in data set [17] was 27000 nM; in data set [3], 28 nM; in [18], > 30000 nM; in [12], 1500 nM; in data set [1], 25 nM. For the same molecule, the inhibition is 7% in data set [7], 19% in data set [19] and 22% in data set [9].

As to `Cc1nc(N2CCCC2)nc2ccc(NC(=O)COc3cccc(Cl)c3)cc12`, the Inhibition (as a rule, the share of the control response that was lost under treatment) in data set [2] came to 7%.

Take `O=C(COc1ccc(C(F)(F)F)cc1)Nc1ccc2nc(N3CCCC3)[nH]c2c1`: the IC50 in data set [3] was found to be 9 nM; in [1], 35 nM.
